# Results as given in US20130035326A1 (AMBIT BIOSCIENCES CORPORATION, priority 2009, published 2013).
# Legend:
# KIT kinase = target: T1, KIT kinase (Homo sapiens, UniProt P10721); experiment: Competition binding assay, KIT Kd
# T1 construct: made in house; host or cells: T7 phage display or HEK-293 cells
# Description: (§1) In certain embodiments, competition binding assays were performed as described in Fabian et al., Nature Biotechnology 2005, 23,329-336.
# (§2) Competition binding assays used herein were developed, validated and performed as described in Fabian et al., Nature Biotechnology 2005, 23,329-336. Kinases were produced as fusions to T7 phage (See, Fabian et al. or WO04/015142) or alternatively, the kinases were expressed in HEK-293 cells and subsequently tagged with DNA for PCR detection (See, WO08/005,310). For the binding assays, streptavidin-coated magnetic beads were treated with biotinylated affinity ligands for 30 min at room temperature to generate affinity resins. The liganded beads were blocked with excess biotin and washed with blocking buffer (SeaBlock (Pierce), 1% BSA, 0.05% Tween 20, 1 mM DTT) to remove unbound ligand and to reduce non-specific binding. Binding reactions were assembled by combining kinase, liganded affinity beads, and test compounds in 1× binding buffer (20% SeaBlock, 0.17×PBS, 0.05% Tween 20, 6 mM DTT). Test compounds were prepared as 100× stocks in DMSO and diluted into the aqueous environment. Kds were determined using an eleven point threefold serial dilutions. DMSO or control compounds were was added to control assays lacking a test compound. Primary screen assays were performed in polypropylene 384-well plates in a final volume of 20-40 μL, while Kd determinations were performed in polystyrene 96-well plates in a final volume of 135 μL. The assay plates were incubated at room temperature with shaking for 1 hour to allow the binding reactions to reach equilibrium, and the affinity beads were washed extensively with wash buffer (1×PBS, 0.05% Tween 20) to remove unbound protein. The beads were then resuspended in elution buffer (1×PBS, 0.05% Tween 20, 0.5 μM non-biotinylated affinity ligand) and incubated at room temperature with shaking for 30 min. The kinase concentration in the eluates was measured by quantitative PCR.
# MV4-11 cells = experiment: MV4-11 cell proliferation assay (Alamar Blue); type: cell-based; settings: Homo sapiens, MV4-11, 72 h, 3 days incubation
# Description: The compounds disclosed herein were tested in an MV4-11 cell proliferation assay to determine their cellular potency against Flt3. MV4-11 cells carry ITD mutation within juxtamembrane domain of Flt3 kinase which renders the kinase constitutively active. […] This assay measures the potency of compounds as Flt3 inhibitors by measuring the reduction of Alamar Blue reagent by viable cells.
# MV4-11 cells were grown in an incubator at 37° C. under 5% CO2 in Iscove's media (Celgro) with 10% FBS. The cell density was kept between 1e5 and 8e5 cells/mL.
# On day one of the experiment, cells were harvested and spun at 500 g for 5 min at 4° C., the supernatant aspirated and the cells resuspended in Iscove's media with 0.5% FBS. Cell density was maintained at 7.5e5 to achieve maximum viability of the cells. The resuspended cells were incubated at 37° C. in 5% CO2 overnight.
# On day two of the experiment, cells were diluted to 6.4e5/mL with Iscove's media with 0.5% FBS. 100 μL of the cell suspension (64,000 cells) were aliquoted into each well of a 96-well TC-treated plate. Compounds were added at 9 different concentrations, with half-log intervals alongside a control reference compound serving as a positive control. Final DMSO concentration was kept at 0.5% and final volume at 200 μL. The cells were then incubated at 37° C. under 5% CO2 for 3 days.
# On day five of the experiment, 40 μL of Alamar Blue reagent was added to each well and the mixture was allowed to incubate for 3 hours. Alamar Blue fluorescence was measured using SoftMax Pro software at 560 nm (excitation) and 590 nm (emission). IC50s were generated as an average of duplicates and represents the concentration of test compound that achieves 50% inhibition of cellular proliferation compared to negative control.
# FLT3 kinase = target: T2, FLT3 kinase (Homo sapiens, UniProt P36888); experiment: Competition binding assay, FLT3 Kd
# T2 construct: made in house; host or cells: T7 phage display or HEK-293 cells
# T2 sequence (P36888 27-993): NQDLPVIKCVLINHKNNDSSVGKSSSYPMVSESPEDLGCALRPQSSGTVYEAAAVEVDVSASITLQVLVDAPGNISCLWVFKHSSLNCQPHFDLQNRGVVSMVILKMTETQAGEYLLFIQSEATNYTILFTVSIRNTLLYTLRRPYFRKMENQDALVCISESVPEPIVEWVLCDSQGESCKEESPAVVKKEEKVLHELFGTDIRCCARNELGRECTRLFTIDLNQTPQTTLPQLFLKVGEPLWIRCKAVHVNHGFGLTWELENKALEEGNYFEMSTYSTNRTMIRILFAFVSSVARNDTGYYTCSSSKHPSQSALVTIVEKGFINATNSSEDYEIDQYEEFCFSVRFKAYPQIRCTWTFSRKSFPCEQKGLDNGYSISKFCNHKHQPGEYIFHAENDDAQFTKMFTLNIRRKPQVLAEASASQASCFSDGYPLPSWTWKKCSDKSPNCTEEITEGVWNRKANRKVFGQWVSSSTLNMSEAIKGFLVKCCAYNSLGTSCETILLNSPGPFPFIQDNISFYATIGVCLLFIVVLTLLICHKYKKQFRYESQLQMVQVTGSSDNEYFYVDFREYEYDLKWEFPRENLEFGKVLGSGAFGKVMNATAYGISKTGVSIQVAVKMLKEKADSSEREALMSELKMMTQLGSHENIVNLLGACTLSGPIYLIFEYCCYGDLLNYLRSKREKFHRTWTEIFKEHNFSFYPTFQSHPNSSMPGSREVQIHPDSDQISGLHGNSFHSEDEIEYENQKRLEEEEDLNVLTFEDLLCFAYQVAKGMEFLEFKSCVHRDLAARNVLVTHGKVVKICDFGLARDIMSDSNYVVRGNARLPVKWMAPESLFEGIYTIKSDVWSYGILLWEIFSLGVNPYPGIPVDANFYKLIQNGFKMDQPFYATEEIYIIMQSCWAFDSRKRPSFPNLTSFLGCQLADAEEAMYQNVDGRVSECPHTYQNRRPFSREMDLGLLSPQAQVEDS
# Description: as §1, §2
# CSF-1R kinase = target: T3, CSF-1R kinase (Homo sapiens, UniProt P07333); experiment: Competition binding assay, CSF-1R Kd
# T3 construct: made in house; host or cells: T7 phage display or HEK-293 cells
# T3 sequence (P07333 20-972): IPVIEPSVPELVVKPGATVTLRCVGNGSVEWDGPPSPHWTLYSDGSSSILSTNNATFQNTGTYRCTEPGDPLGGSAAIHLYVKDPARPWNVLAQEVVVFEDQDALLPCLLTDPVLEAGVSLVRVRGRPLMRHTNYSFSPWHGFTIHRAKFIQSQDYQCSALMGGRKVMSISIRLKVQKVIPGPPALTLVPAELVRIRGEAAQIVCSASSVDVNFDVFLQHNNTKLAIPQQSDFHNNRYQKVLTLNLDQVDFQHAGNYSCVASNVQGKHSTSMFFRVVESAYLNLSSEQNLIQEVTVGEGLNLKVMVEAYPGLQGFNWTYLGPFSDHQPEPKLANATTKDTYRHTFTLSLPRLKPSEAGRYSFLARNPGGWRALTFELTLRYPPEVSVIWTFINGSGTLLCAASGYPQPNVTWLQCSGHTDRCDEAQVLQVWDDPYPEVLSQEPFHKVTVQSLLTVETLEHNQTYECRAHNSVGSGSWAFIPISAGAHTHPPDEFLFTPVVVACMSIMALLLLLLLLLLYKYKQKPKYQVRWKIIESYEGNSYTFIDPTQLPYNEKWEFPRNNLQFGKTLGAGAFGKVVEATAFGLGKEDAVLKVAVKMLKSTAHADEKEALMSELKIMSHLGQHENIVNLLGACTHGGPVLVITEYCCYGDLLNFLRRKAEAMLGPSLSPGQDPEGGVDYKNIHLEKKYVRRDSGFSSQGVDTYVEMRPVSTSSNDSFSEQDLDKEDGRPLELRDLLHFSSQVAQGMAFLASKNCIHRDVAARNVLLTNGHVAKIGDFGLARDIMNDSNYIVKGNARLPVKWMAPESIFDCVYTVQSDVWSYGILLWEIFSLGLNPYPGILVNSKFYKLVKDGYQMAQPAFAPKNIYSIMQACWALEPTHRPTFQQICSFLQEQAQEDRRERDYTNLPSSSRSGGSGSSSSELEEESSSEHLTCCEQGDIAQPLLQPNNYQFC
# Description: as §1, §2
# T1 sequence (P10721 26-976): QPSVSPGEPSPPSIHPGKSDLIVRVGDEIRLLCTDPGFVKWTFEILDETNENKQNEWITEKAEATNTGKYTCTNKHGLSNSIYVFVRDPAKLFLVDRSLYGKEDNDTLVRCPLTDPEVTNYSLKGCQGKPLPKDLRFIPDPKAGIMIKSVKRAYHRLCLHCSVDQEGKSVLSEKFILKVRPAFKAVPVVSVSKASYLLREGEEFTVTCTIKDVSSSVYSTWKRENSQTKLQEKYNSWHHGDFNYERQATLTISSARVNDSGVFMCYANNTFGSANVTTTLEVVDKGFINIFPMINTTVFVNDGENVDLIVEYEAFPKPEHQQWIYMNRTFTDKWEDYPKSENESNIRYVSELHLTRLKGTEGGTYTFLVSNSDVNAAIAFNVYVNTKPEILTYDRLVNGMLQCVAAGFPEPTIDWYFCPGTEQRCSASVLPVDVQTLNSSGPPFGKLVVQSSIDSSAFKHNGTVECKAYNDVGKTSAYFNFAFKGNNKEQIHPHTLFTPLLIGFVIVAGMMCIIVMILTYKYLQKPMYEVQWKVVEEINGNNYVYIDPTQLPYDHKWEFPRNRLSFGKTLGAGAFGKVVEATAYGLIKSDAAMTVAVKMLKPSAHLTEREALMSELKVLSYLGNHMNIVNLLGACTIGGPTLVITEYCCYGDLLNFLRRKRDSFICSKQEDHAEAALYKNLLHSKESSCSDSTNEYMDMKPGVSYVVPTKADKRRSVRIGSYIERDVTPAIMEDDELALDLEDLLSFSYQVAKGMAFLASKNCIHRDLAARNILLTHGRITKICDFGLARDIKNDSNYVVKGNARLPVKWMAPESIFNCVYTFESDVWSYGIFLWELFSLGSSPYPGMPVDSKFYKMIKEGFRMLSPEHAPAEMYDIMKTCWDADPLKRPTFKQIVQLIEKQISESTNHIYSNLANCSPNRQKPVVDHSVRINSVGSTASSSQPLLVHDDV
Kd (KIT kinase),IC50 (MV4-11 cells),Kd (FLT3 kinase),Kd (CSF-1R kinase),SMILES
1 to 10 nM,≤ 1 nM,≤ 1 nM,≤ 10 nM,"CS(=O)(=O)O.Nc1ncc(-c2ccc(CC(=O)Nc3cc(C4(C(F)(F)F)CC4)on3)cc2)cc1F [Example 127, 3-fluoro-5-(4-(2-oxo-2-(5-(1-(trifluoromethybcyclopropybisoxazol-3-ylamino)ethyl)phenyl)pyridin-2-aminium methanesulfonate]"
≤ 1 nM,1 to 10 nM,≤ 1 nM,≤ 10 nM,"CC(CF)(CF)c1cc(NC(=O)Nc2ccc(-c3ccc(NCCN4CCOCC4)nc3)cc2)no1 [Example 37, 4-(2-(5-(4-(3-(5-(1,3-difluoro-2-methylpropan-2-yl)isoxazol-3-yl)ureido)phenyl)pyridin-2-ylamino)ethyl)morpholin-4-ium methanesulfonate]"
1 to 10 nM,≤ 1 nM,≤ 1 nM,≤ 10 nM,"CC(C)(C)c1cc(NC(=O)Cc2ccc(-c3cnc(N)nc3)cc2)no1 [Example 74, 2-(4-(2-aminopyrimidin-5-yl)phenyl)-N-(5-tert-butylisoxazol-3-yl)acetamide]"
≤ 1 nM,10 to 100 nM,1 to 10 nM,≤ 10 nM,"COc1cc(-c2ccc(N)nc2)ccc1NC(=O)Nc1cc(C(C)(C)C)on1 [Example 69, 5-(4-(3-(5-tert-butylisoxazol-3-yl)ureido)-3-methoxyphenyl)pyridin-2-aminium methanesulfonate]"
1 to 10 nM,1 to 10 nM,≤ 1 nM,10 to 100 nM,"CC(C)(CO)c1cc(NC(=O)Cc2ccc(-c3ccc(N)nc3)cc2)no1 [Example 88, 5-(4-(2-(5-(1-hydroxy-2-methylpropan-2-yl)isoxazol-3-ylamino)-2-oxoethyl)phenyl)pyridin-2-aminium methanesulfonate]"
1 to 10 nM,10 to 100 nM,1 to 10 nM,100 to 500 nM,CN1CC(=O)Nc2ncc(-c3ccc(CC(=O)Nc4cc(C(C)(C)C)on4)cc3)cc2C1 [Example 190]
1 to 10 nM,1 to 10 nM,≤ 1 nM,≤ 10 nM,"CC(C)(C)c1cc(NC(=O)Cc2ccc(-c3cnc4c(c3)CCCN4)cc2)no1 [Example 120, 6-(4-(2-((5-(tert-butyl)isoxazol-3-yl)amino)-2-oxoethyl)phenyl)-1,2,3,4-tetrahydro-1,8-naphthyridin-1-ium methanesulfonate]"
≤ 1 nM,10 to 100 nM,≤ 1 nM,≤ 10 nM,"CN(C(=O)Nc1cc(C(C)(C)C)on1)c1ccc(-c2ccc(N)nc2)cc1 [Example 31, 1-(4-(6-aminopyridin-3-yl)phenyl)-3-(5-tert-butylisoxazol-3-yl)-1-methylurea]"
10 to 100 nM,10 to 100 nM,1 to 10 nM,100 to 500 nM,CC(C)(C)Sc1cc(-c2ccc(CC(=O)Nc3cc(C(C)(C)C)on3)cc2)cnc1N [Example 175]
1 to 10 nM,≤ 1 nM,1 to 10 nM,≤ 10 nM,"CC(C)(C)c1cc(NC(=O)Nc2ccc(-c3ccc(N)nc3)cc2)on1 [Example 70, 5-(4-(3-(3-tert-butylisoxazol-5-yl)ureido)phenyl)pyridin-2-aminium methanesulfonate]"
1 to 10 nM,1 to 10 nM,≤ 1 nM,≤ 10 nM,"CC(C)(c1cc(NC(=O)Nc2ccc(-c3ccc(NCCN4CCOCC4)nc3)cc2)no1)C(F)(F)F [Example 39, 4-(2-(5-(4-(3-(5-(1,1,1-trifluoro-2-methylpropan-2-yl)isoxazol-3-yl)ureido)phenyl)pyridin-2-ylamino)ethyl)morpholin-4-ium methanesulfonate]"
≤ 1 nM,1 to 10 nM,≤ 1 nM,≤ 10 nM,"Nc1ccc(-c2ccc(NC(=O)Nc3cc(C4(C(F)(F)F)CC4)on3)nc2)cn1 [Example 40, 1-(6′-amino-3,3′-bipyridin-6-yl)-3-(5-(1-(trifluoromethyl)cyclopropyl)isoxazol-3-yl)urea]"
10 to 100 nM,10 to 100 nM,1 to 10 nM,10 to 100 nM,"CC(C(=O)Nc1cc(C(C)(C)C)on1)c1ccc(-c2ccc(N)nc2)cc1 (racemic) [Example 71, 2-(4-(6-aminopyridin-3-yl)phenyl)-N-(5-tert-butylisoxazol-3-yl) propanamide]"
≤ 1 nM,≤ 1 nM,≤ 1 nM,≤ 10 nM,"CC(CF)(CF)c1cc(NC(=O)Nc2ccc(-c3ccc(N)nc3)cc2)no1 [Example 34, 5-(4-(3-(5-(1,3-difluoro-2-methylpropan-2-yl)isoxazol-3-yl)ureido)phenyl)pyridin-2-aminium methanesulfonate]"
1 to 10 nM,≤ 1 nM,≤ 1 nM,≤ 10 nM,"CS(=O)(=O)O.Cc1cc(-c2ccc(CC(=O)Nc3cc(C4(C(F)(F)F)CC4)on3)cc2)cnc1N [Example 130, 3-methyl-5-(4-(2-oxo-2-(5-(1-(trifluoromethybcyclopropybisoxazol-3-ylamino)ethyl)phenyl)pyridin-2-aminium methanesulfonate]"
≤ 1 nM,1 to 10 nM,≤ 1 nM,≤ 10 nM,CC1(c2cc(NC(=O)Cc3ccc(-c4cnc(N)cc4Cl)cc3)no2)CC1 [Example 172]
1 to 10 nM,10 to 100 nM,1 to 10 nM,≤ 10 nM,"CC(C)(CO)c1cc(NC(=O)Nc2ccc(-c3ccc(N)nc3)cc2)on1 [Example 81, 5-(4-(3-(3-(1-hydroxy-2-methylpropan-2-yl)isoxazol-5-yl)ureido)phenyl)pyridin-2-aminium methanesulfonate]"
> 100 nM,> 100 nM,10 to 100 nM,> 100 nM,CC(C)(C)c1cc(NC(=O)Cc2ccc(-c3ccc(N)nc3)c(C(F)(F)F)c2)no1 [Example 180]
1 to 10 nM,≤ 1 nM,≤ 1 nM,≤ 10 nM,"CC(C)(C)c1cc(NC(=O)Cc2ccc(-c3cnc(N)nc3)cc2F)no1 [Example 79, 2-(4-(2-aminopyrimidin-5-yl)-2-fluorophenyl)-N-(5-tert-butylisoxazol-3-yl)acetamide]"
